Experimental data published in US20260242395A1, “AMINOHETEROARYL KINASE INHIBITORS” (ALLORION THERAPEUTICS INC, priority 2022, published 2026).

How the values were obtained:
Assay type in all cases: biochemical
[1] = biological target: T1, CDK1/CyclinB (Homo sapiens, UniProt P06493); experiment: CDK1/CyclinB kinase inhibitory activity (Caliper mobility shift); settings: enzyme 3 nM, ATP 20 μM, 28° C. 30 min; read-out: CDK1/Cyclin B1 IC50
T1 construct: purchased Millipore 14-450M
Method: CDK1/CyclinB kinase inhibitory activity (IC50): 5 μl of various dilutions of test compound in 1× kinase buffer (50 mM HEPES pH 7.5, 10 mM MgCl2, 2 mM DTT and 0.01% Brij-35) was mixed with 10 μL of CDK1/CyclinB (Millipore, 14-450M #, final concentration 3 nM in 1× Kinase buffer) in 384 plates and incubated at room temperature for 10 min. To initiate each reaction, 10 μL of peptide solution containing fluorescently-labeled-peptide 18(5-FAM-QSPKKG-CONH2) (GL, 114202 #, final concentration 3000 nM) and ATP (final concentration 20 μM) in 1× Kinase buffer was added to each of the wells containing test compound and CDK1/CyclinB mixture. The reaction is then allowed to proceed at 28° C. for 30 min and terminated by the addition of 25 μL stop buffer (100 mM HEPES pH 7.5, 50 mM EDTA, 0.2% Coating Reagent #3 (Perkin Elmer, 760050 #) and 0.015% Brij-35).
(§1) Following the kinase reaction, Caliper EZ reader II (Downstream voltages: −500V, Upstream voltages: −2250V, Base pressure −0.5 PSI, Screen pressure −1.2 PSI) was used to separate the phosphorylated (product) and the unphosphorylated (substrate) fluorescently-labeled peptide 18 based on their different mobility. Both substrate and product were measured and the ratio of these values were used to generate % conversion by Caliper EZ reader II. These conversion values were then transformed into % inhibition of kinase activity using the formula: % Inhibition=[(MA−X)/(MA−MI)]×100% where MA=conversion value of DMSO only controls, MI=conversion value of no enzyme controls and X=conversion value at any given compound dose. IC50 values were then calculated by plotting dose-response curves and then using the XLfit application in Excel software.

[2] = biological target: T2, CDK7/CyclinH/MAT1 (Homo sapiens, UniProt P50613); experiment: CDK7/CyclinH/MAT1 kinase inhibitory activity (Caliper mobility shift); settings: enzyme 12.5 nM, ATP 70 μM, 28° C. 30 min; read-out: CDK7/Cyclin H/MAT1 IC50
T2 construct: purchased Millipore 14-476M
T2 sequence (P50613 whole entry): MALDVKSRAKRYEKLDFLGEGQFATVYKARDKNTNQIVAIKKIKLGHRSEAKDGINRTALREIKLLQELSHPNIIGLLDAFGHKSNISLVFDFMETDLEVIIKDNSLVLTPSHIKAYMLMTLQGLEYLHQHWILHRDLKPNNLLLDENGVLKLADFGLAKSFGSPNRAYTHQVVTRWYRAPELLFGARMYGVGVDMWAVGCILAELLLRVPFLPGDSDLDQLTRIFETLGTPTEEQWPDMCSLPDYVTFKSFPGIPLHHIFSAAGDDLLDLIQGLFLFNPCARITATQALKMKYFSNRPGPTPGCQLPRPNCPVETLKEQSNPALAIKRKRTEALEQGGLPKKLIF
T2 sequence (P51946 whole entry partner): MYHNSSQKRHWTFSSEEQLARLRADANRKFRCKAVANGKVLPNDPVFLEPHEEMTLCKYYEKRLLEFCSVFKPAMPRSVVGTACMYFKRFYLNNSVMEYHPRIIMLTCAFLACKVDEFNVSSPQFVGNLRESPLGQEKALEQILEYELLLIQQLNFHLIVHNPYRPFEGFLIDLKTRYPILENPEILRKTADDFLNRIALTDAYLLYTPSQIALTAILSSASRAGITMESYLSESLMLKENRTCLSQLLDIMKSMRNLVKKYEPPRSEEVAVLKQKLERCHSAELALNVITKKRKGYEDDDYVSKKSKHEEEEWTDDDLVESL
T2 sequence (P51948 whole entry partner): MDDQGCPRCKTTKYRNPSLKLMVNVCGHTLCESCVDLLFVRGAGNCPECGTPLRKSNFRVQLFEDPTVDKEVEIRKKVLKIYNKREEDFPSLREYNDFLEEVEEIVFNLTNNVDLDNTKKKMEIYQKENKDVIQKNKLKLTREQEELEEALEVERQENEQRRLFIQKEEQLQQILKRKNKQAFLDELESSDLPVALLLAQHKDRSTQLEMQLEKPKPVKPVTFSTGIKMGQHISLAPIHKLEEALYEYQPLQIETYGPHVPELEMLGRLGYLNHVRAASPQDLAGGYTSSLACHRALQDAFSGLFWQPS
Method: (§2) CDK7/CyclinH/MAT1 kinase inhibitory activity (IC50): 5 μl of various dilutions of test compound in 1× kinase buffer (20 mM HEPES, pH 7.5, 10 mM MgCl2, 2 mM DTT and 0.01% Triton X-100) was mixed with 10 μL of CDK7/CyclinH/MAT1 (Millipore, 14-476M #, final concentration 12.5 nM in 1× Kinase buffer) in 384 plates and incubated at room temperature for 10 min. To initiate each reaction, 10 μL of peptide solution containing fluorescently-labeled-peptide CTD3 (5-FAM-[…], GL, SY346885 #, final concentration 3000 nM) and ATP (final concentration 70 μM) in 1× Kinase buffer was added to each of the wells containing test compound and CDK7/CyclinH/MAT1 mixture. The reaction is then allowed to proceed at 28° C. for 30 min and terminated by the addition of 25 μL stop buffer (100 mM HEPES pH 7.5, 50 mM EDTA, 0.2% Coating Reagent #3 (Perkin Elmer, 760050 #) and 0.015% Brij-35).
as §1, with “the phosphoiylated” for “the phosphorylated”, “peptide CTD3” for “peptide 18”

[3] = biological target: T3, CDK9/CyclinT1 (Homo sapiens, UniProt P50750); experiment: CDK9/CyclinT1 kinase inhibitory activity (Caliper mobility shift); settings: enzyme 12.5 nM, ATP 10M, 28° C. 30 min; read-out: CDK9/Cyclin T1 IC50
T3 construct: purchased Millipore 14-685M
T3 sequence (P50750 whole entry): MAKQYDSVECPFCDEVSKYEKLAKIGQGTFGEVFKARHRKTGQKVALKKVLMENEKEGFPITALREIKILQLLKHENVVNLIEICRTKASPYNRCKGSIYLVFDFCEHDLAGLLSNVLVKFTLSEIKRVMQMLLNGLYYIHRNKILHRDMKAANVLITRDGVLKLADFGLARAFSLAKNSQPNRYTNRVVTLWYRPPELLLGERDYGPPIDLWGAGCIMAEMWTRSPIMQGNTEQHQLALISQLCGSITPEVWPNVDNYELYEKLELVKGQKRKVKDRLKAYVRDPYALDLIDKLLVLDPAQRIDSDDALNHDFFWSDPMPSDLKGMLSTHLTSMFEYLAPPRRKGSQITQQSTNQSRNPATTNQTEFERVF
T3 sequence (O60563 whole entry partner): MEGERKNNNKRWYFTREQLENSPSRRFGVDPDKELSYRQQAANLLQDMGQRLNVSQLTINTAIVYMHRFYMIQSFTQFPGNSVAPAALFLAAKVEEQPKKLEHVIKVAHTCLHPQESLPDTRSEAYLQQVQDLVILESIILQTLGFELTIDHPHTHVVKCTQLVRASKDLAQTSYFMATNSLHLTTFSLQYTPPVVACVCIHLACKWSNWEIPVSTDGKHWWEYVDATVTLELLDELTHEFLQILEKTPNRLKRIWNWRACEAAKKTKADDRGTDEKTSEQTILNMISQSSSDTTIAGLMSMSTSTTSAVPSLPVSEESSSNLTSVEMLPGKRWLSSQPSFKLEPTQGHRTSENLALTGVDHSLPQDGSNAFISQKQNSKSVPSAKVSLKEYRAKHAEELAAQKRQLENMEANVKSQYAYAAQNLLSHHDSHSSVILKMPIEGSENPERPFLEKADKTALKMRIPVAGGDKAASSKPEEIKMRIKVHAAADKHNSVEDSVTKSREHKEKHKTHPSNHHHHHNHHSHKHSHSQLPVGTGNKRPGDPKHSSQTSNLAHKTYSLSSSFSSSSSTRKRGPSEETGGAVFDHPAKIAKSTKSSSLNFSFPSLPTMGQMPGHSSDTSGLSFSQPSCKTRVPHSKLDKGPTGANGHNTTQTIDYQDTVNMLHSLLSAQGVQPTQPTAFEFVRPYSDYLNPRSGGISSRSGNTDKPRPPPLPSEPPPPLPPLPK
Method: as §2, with “CDK9/CyclinT1” for “CDK7/CyclinH/MAT1”, “14-685M” for “14-476M”, “fluorescently-labeled -peptide” for “fluorescently-labeled-peptide”, “[…])” for “70 μM)”
as §1, with “CTD3” for “18”

T1 sequence (P06493 whole entry): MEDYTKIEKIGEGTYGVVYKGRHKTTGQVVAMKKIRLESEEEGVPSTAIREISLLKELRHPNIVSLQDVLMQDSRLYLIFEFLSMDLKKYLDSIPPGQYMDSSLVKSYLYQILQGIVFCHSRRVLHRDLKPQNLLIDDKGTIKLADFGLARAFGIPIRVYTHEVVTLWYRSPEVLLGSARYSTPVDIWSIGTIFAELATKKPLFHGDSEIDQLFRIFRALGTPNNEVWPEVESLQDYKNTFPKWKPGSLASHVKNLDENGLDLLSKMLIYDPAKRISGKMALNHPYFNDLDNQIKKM
T1 sequence (P14635 whole entry partner): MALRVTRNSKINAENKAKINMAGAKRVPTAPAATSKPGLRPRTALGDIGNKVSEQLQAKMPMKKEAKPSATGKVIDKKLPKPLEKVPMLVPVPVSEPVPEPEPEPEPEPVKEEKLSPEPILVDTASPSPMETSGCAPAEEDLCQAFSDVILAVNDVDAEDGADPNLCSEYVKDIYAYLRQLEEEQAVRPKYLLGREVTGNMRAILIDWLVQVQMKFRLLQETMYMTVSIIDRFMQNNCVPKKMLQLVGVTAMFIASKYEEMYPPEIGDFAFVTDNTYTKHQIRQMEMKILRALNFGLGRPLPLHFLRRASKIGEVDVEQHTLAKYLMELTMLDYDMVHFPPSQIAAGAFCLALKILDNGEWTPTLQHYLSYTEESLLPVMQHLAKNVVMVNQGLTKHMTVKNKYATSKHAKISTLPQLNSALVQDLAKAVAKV

SMILES	IC50 [1] [nM]	IC50 [2] [nM]	IC50 [3] [nM]
Cc1nc2c(F)cc(-c3nc(N[C@@H]4CCOC[C@H]4O)ncc3Cl)cc2c(C)c1[C@@H](C)O (single isomer, unassigned) [Example 15a]	100 to 1000	≥ 1000	100 to 1000
Cc1nc2c(F)cc(-c3nc(N[C@@H]4CCOC[C@H]4O)ncc3Cl)cc2c(C)c1[C@H](C)O (single isomer, unassigned) [Example 15b]	100 to 1000	100 to 1000	100 to 1000
O[C@@H]1COCC[C@H]1Nc1ncc(Cl)c(-c2cc(F)c3ncc4c(c3c2)C2CCC(C4)N2)n1 (single isomer, unassigned) [Example 20b]	100 to 1000	100 to 1000	100 to 1000
CNC(C)c1cnc2c(F)cc(-c3nc(N[C@@H]4CCOC[C@H]4O)ncc3Cl)cc2c1 (single isomer, unassigned) [Example 32a]	100 to 1000	≥ 1000	100 to 1000
CC1Cc2cnc3c(F)cc(-c4nc(N[C@@H]5CCOC[C@H]5O)ncc4Cl)cc3c2CN1 (single isomer, unassigned) [Example 34a]	100 to 1000	100 to 1000	10 to 100
CC1Cc2cnc3c(F)cc(-c4nc(N[C@@H]5CCOC[C@H]5O)ncc4Cl)cc3c2CN1 (single isomer, unassigned) [Example 34b]	≥ 1000	≥ 1000	100 to 1000
Cc1nc2c(F)cc(-c3nc(N[C@@H]4CCOC[C@H]4O)ncc3Cl)cc2c(Cl)c1C(C)O (single isomer, unassigned) [Example 35a]	100 to 1000	≥ 1000	100 to 1000
Cc1nc2c(F)cc(-c3nc(N[C@@H]4CCOC[C@H]4O)ncc3Cl)cc2c(Cl)c1C(C)O (single isomer, unassigned) [Example 35b]	≥ 1000	≥ 1000	≥ 1000
CC(O)c1cnc2c(F)cc(-c3nc(N[C@@H]4CCOC[C@H]4O)ncc3Cl)cc2c1Cl (single isomer, unassigned) [Example 40a]	–	100 to 1000	100 to 1000
CNC(C)c1cc2cc(-c3nc(N[C@@H]4CCOC[C@H]4O)ncc3Cl)cc(F)c2nc1C (single isomer, unassigned) [Example 45a]	100 to 1000	≥ 1000	100 to 1000
CNC(C)c1cc2cc(-c3nc(N[C@@H]4CCOC[C@H]4O)ncc3Cl)cc(F)c2nc1C (single isomer, unassigned) [Example 45b]	≥ 1000	≥ 1000	≥ 1000
Cc1nc2c(F)cc(-c3nc(N[C@@H]4CCOC[C@H]4O)ncc3Cl)cc2cc1C1CCCN1 (single isomer, unassigned) [Example 57a]	100 to 1000	≥ 1000	100 to 1000
Cc1nc2c(F)cc(-c3nc(N[C@@H]4CCOC[C@H]4O)ncc3Cl)cc2cc1C(C)NC1CC1 (single isomer, unassigned) [Example 73b]	100 to 1000	≥ 1000	100 to 1000
Cc1nc2c(F)cc(-c3nc(N[C@@H]4CCOC[C@H]4O)ncc3F)cc2c(C)c1C(C)O (single isomer, unassigned) [Example 81a]	100 to 1000	100 to 1000	10 to 100
Cc1nc2c(F)cc(-c3nc(N[C@@H]4CCOC[C@H]4O)ncc3F)cc2c(C)c1C(C)O (single isomer, unassigned) [Example 81b]	100 to 1000	100 to 1000	100 to 1000
Cc1c(C(C)O)cnc2c(F)cc(-c3nc(N[C@@H]4CCOC[C@H]4O)ncc3Cl)cc12 (single isomer, unassigned) [Example 88a]	100 to 1000	100 to 1000	100 to 1000
Cc1c(C(C)NC2CC2)cnc2c(F)cc(-c3nc(N[C@@H]4CCOC[C@H]4O)ncc3Cl)cc12 (single isomer, unassigned) [Example 91b]	≥ 1000	≥ 1000	≥ 1000
CC1(C)NCc2c(cnc3c(F)cc(-c4nc(N[C@@H]5CCOC[C@H]5O)ncc4F)cc23)C1O (single isomer, unassigned) [Example 106b]	100 to 1000	100 to 1000	100 to 1000
CC(C)(O)c1cnc2c(F)cc(-c3nc(N[C@@H]4CCOC[C@H]4O)ncc3Cl)cc2c1 [Example 1, (3S,4R)-4-((5-chloro-4-(8-fluoro-3-(2-hydroxypropan-2-yl)quinolin-6-yl)pyrimidin-2-yl)amino)tetrahydro-2H-pyran-3-ol]	≥ 1000	≥ 1000	≥ 1000
Cc1nc2c(F)cc(-c3nc(N[C@@H]4CCOC[C@H]4O)ncc3Cl)cc2cc1C(C)(C)O [Example 5, (3S,4R)-4-((5-chloro-4-(8-fluoro-3-(2-hydroxypropan-2-yl)-2-methylquinolin-6-yl)pyrimidin-2-yl)amino)tetrahydro-2H-pyran-3-ol]	≥ 1000	≥ 1000	100 to 1000
Cc1c(C(C)(C)O)cnc2c(F)cc(-c3nc(N[C@@H]4CCOC[C@H]4O)ncc3Cl)cc12 [Example 7, (3S,4R)-4-((5-chloro-4-(8-fluoro-3-(2-hydroxypropan-2-yl)-4-methylquinolin-6-yl)pyrimidin-2-yl)amino)tetrahydro-2H-pyran-3-ol]	100 to 1000	≥ 1000	100 to 1000
O[C@@H]1COCC[C@H]1Nc1ncc(Cl)c(-c2cc(F)c3ncc4c(c3c2)CCNC4)n1 [Example 8, (3S,4R)-4-((5-chloro-4-(7-fluoro-1,2,3,4-tetrahydrobenzo[c][2,7]naphthyridin-9-yl)pyrimidin-2-yl)amino)tetrahydro-2H-pyran-3-ol]	10 to 100	10 to 100	10 to 100
O[C@@H]1COCC[C@H]1Nc1ncc(Cl)c(-c2cc(F)c3ncc4c(c3c2)CNCC4)n1 [Example 9, (3S,4R)-4-((5-chloro-4-(7-fluoro-1,2,3,4-tetrahydrobenzo[c][2,6]naphthyridin-9-yl)pyrimidin-2-yl)amino)tetrahydro-2H-pyran-3-ol]	100 to 1000	100 to 1000	100 to 1000
